{"source": "patent US9764048B2", "about": "“Targeted molecular imaging probe and method for in vivo molecular imaging” (priority 2012, dated 2017)", "key": {"[1]": {"settings": "cited from earlier work"}, "HeLa-Cx43 cells [2]": {"tested_on": "HeLa-Cx43 cells", "experiment": "Cy5.5-Cx43SP1 cells binding and blocking experiment", "assay_type": "cell-based", "settings": "for binding / uptake of probe by HeLa-Cx43 cells: Cy5.5-Cx43SP1 500 nmol/L, fluorescence microscopy", "description": "(§1) 1) Establishment of a Cx43 highly expressing cell line: Cervical cancer HeLa cells were transfected by Cx43 gene, and cervical cancer tumor cell lines HeLa-Cx43 overexpressing Cx43 was successfully prepared. Non-transgenic HeLa cells (without C43 expression) were used as control.\n(§2) 2) Cy5.5-Cx43SP1 cells binding and blocking experiment: HeLa-Cx43 cells and the control group HeLa-Control cells were applied onto a 12-well plate in an amount of 0.5×10^6/well one day prior to experiment, and were classified into four groups: Group A: HeLa-Cx43 cells group, Group B: HeLa-Control cells group, Group C: HeLa-Cx43 cells blocking group, Group D: HeLa-Control cells blocking group. Each group comprises 3 wells and the experiment was repeated for 3 times. Into each well was added Cy5.5-Cx43SP1 with a concentration of 500 nmol/L and an amount of 1 ml. Unlabeled Cx43SP1 was added into blocking groups with a concentration of 5 μmol/L."}, "HeLa-Control cells [3]": {"tested_on": "HeLa-Control cells", "experiment": "Cy5.5-Cx43SP1 cells binding and blocking experiment, control cells", "assay_type": "cell-based", "settings": "for binding / uptake of probe by control HeLa cells: Cy5.5-Cx43SP1 500 nmol/L, HeLa without Cx43 transfection", "description": "as §1, §2"}, "myocardial gap junctions": {"tested_on": "myocardial gap junctions", "experiment": "Fluorescence microscopy of frozen tissue sections after tail vein injection of the probe", "assay_type": "in vivo", "settings": "1 h after tail vein injection", "description": "Meanwhile, frozen sections of tissue were further prepared and imaged under a fluorescence microscope. By using muscle as a control (FIGS. 3-a, 3-b, and 3-c), the distribution profile of the probe Cy5.5-Cx43SP in heart was observed under a fluorescence microscope."}, "[4]": {"experiment": "Biological distribution of Cy5.5-Cx43SP in normal mice, ex vivo near-infrared fluorescent imaging of main organs", "settings": "mouse", "method": "1 hour after injection of Cy5.5-Cx43SP, the mice were sacrificed, and their organs were taken out to perform ex vivo near-infrared fluorescent imaging of main organs. […] Especially, the relatively high uptake by heart is highly consistent with the fact that normal heart express relatively high Cx43 (FIG. 6)."}, "[5]": {"tested_on": "HeLa-Cx43 tumor overexpressing Cx43", "experiment": "Optical tumor imaging of nude mice bearing tumor", "assay_type": "in vivo, nude mouse", "settings": "near-infrared fluorescent imaging, 1 h after tail vein injection", "method": "(§3) HeLa-Cx43 cells overexpressing Cx43 were used to establish a subcutaneous xenograft model in nude mouse (FIG. 9, left), and the conventional subcutaneous xenograft model of HeLa cells without transfection of Cx43 were used as control group (FIG. 9, right). In vivo Cy5.5-Cx43SP1 near-infrared fluorescent imaging of tumor was carried out."}, "HeLa tumor": {"tested_on": "HeLa tumor", "experiment": "Optical tumor imaging of nude mice bearing tumor, control xenograft", "assay_type": "in vivo, nude mouse", "settings": "near-infrared fluorescent imaging, 1 h after tail vein injection", "method": "as §3"}, "HeLa-Cx43 cells [6]": {"tested_on": "HeLa-Cx43 cells", "experiment": "^64Cu-NODA-Cx43SP1 cells binding and blocking experiment", "assay_type": "cell-based", "description": "as §1\n(§4) HeLa-Cx43 cells and control group HeLa-Control cells were applied onto a 12-well plate in an amount of 0.5×10^6/well one day prior to experiment, and were classified into four groups: Group A: HeLa-Cx43 cells group, Group B: HeLa-Control cells group, Group C: HeLa-Cx43 cells blocking group, Group D: HeLa-Control cells blocking group. Each group comprises 3 wells, and the experiment was repeated for 3 times. Into each well was added ^64Cu-NODA-Cx43SP1 with a concentration of 3.2 μCi/well and an amount of 1 ml. Unlabeled NODA-Cx43SP1 was added into the blocking groups with a concentration of 50 μg/well (10 times of ^64Cu-NODA-Cx43SP1)."}, "HeLa-Control cells [7]": {"tested_on": "HeLa-Control cells", "experiment": "^64Cu-NODA-Cx43SP1 cells binding and blocking experiment, control cells", "assay_type": "cell-based", "settings": "3.2 μCi/well, HeLa without Cx43 transfection", "description": "as §1, §4"}}, "note": "“Also recorded” adds a separate entry of the source. *1 amine or outer side, *2 acyl side, *3 side chain or, on linkers, in order; H or OH if unused. Where a SMILES comes first, the peptide text is derived from it. Where no end group is shown, it is not given here. [ ]: non-standard residue; d: D form. ξ: configuration not given here. X1 = O=C(C1C[C@H](O)CN1[*:1])[*:2]; Hyp = O=C(O)[C@@H]1C[C@@H](O)CN1; ξY = NC(Cc1ccc(O)cc1)C(=O)O; ξP = O=C(O)C1CCCN1; ξA = CC(N)C(=O)O"}
{"compound": "CC(NC(=O)CN)C(=O)NCC(=O)N1C[C@@H](O)CC1C(=O)N1CCCC1C(=O)NC(Cc1ccc(O)cc1)C(N)=O", "note": "(stereo partly drawn) [AAP10, Gly-Ala-Pro-Gly-4 Hyp-Pro-Tyr] (H-G[ξA]G[X1][ξP][ξY]-NH2)", "values": [{"measurement": "stability in plasma", "setting": "[1]", "value": "not stable in plasma"}]}
{"compound": "Cy5.5-Cx43SP1: Cx43SP1 labeled with near-infrared fluorescent dye Cy5.5 via Cy5.5-NHS (GAPG[Hyp]PY; also: Cy5.5 coupled via Cy5.5-NHS, site not given here)", "values": [{"measurement": "binding / uptake of probe by HeLa-Cx43 cells", "setting": "HeLa-Cx43 cells [2]", "value": "significant specific binding"}, {"measurement": "binding / uptake of probe by HeLa-Cx43 cells", "setting": "HeLa-Cx43 cells [2]; listed as Cy5.5-Cx43SP", "value": "uptake a large amount"}, {"measurement": "binding / uptake by HeLa-Cx43 cells after blocking", "setting": "HeLa-Cx43 cells [2]; blocking with excess unlabeled Cx43SP 5 μmol/L", "value": "substantially reduced; also recorded: decreases significantly"}, {"measurement": "binding / uptake of probe by control HeLa cells", "setting": "HeLa-Control cells [3]", "value": "no binding"}, {"measurement": "binding / uptake of probe by control HeLa cells", "setting": "HeLa-Control cells [3]; listed as Cy5.5-Cx43SP", "value": "not uptaken"}, {"measurement": "uptake by control HeLa cells after blocking", "setting": "HeLa-Control cells [3]; blocking with excess unlabeled Cx43SP", "value": "still do not uptake"}, {"measurement": "gathering of probe in muscular tissue (control)", "setting": "myocardial gap junctions; frozen section of muscle", "value": "not gathered in the muscular tissue"}, {"measurement": "gathering of probe in myocardial tissue", "setting": "myocardial gap junctions; frozen section of myocardium", "value": "gathered in the myocardial tissue in large amount"}, {"measurement": "location of probe within myocardium", "setting": "myocardial gap junctions; frozen section of myocardium", "value": "mainly distributed at the location of gap junctions between myocardial cells"}, {"measurement": "excretion route", "setting": "[4]; 1 h after injection", "value": "mainly excreted through liver and intestinal tract, and partly through kidney and urinary system; also recorded: mostly excreted via liver and intestinal tract"}, {"measurement": "organ distribution of probe", "setting": "[4]; 1 h after tail vein injection, ex vivo organs", "value": "mainly distributed in heart, liver, gastrointestinal tract; also recorded: significantly gathered in the heart, stomach, liver, gall bladder and intestinal tract"}, {"measurement": "gathering of probe at HeLa-Cx43 tumor", "setting": "[5]", "value": "gathered in the location of HeLa-Cx43 tumor overexpressing Cx43 in high concentration; also recorded: gathered at tumor site of HeLa-Cx43 overexpressing Cx43 in large amount"}, {"measurement": "gathering of probe at control HeLa tumor", "setting": "HeLa tumor", "value": "no obvious gather; also recorded: not concentrated at the HeLa tumor site"}]}
{"compound": "^64Cu-NODA-Cx43SP1: NODA-modified Cx43SP1 labeled with ^64Cu, PET probe (GAPG[Hyp]PY; also: NODA chelator carrying 64Cu, site not given here)", "values": [{"measurement": "binding of probe to HeLa-Cx43 cells", "setting": "HeLa-Cx43 cells [6]; 3.2 μCi/well", "value": "significant specific binding"}, {"measurement": "binding to HeLa-Cx43 in the blocking experiment", "setting": "HeLa-Cx43 cells [6]; unlabeled NODA-Cx43SP1 50 μg/well", "value": "substantially reduced"}, {"measurement": "binding of probe to control HeLa cells", "setting": "HeLa-Control cells [7]", "value": "no binding"}]}
